Drawing on patent US11478451B1, “Macrocyclic chlorine substituted indole derivatives” (Bayer Aktiengesellschaft, priority 2017, dated 2022), this text covers IC50 and EC50 for nine compounds.

SMILES strings stand for the structures. Counter-ions that a name gives are not always drawn. Like-named read-outs stand apart in the source and are kept apart here.

Data set [1] has as its system SUDHL5 cells. Description: Antiproliferation assay (CellTiter-Glo, 72 h), SUDHL5. Format: cell-based. The settings on record: IC50, median, SUDHL5, 72 h, read-out: Antiproli SUDHL5 [M] (median). The gist of the method: (§1)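 Cells were incubated with compounds for 72 h at 37°C. Viability was then read by CellTiter-Glo luminescence, and a parallel day 0 plate read the same way gave the time-zero signal.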

The subject of data set [2] is SUDHL10 cells. Description: Induction of cytotoxicity (CellTiter-Glo, 5 h), SUDHL10. As to conditions: SUDHL10, 5 h. (In general: In ATP-based viability assays light output follows the ATP content of the culture.)
In data set [3] the test system is HMC-1-8 cells. Description: Antiproliferation assay (CellTiter-Glo, 72 h), HMC-1-8. As to conditions: IC50, median, HMC-1-8, 72 h, read-out: Antiproli HMC-1-8 [M] median. Type of data set: cell-based. The gist of the method:
as §1

The test system of data set [4] is AMO-1 cells. Description: Antiproliferation assay (CellTiter-Glo, 72 h), AMO-1. Type of data set: cell-based. As to conditions: IC50, median, AMO-1, 72 h, read-out: Antiproli AMO-1 [M] median. The essentials:
as §1

Data set [5] deals with SUDHL10 cells. As to the kind of experiment: Induction of caspase-3/7 activity (Caspase-Glo 3/7), SUDHL10. Type of data set: cell-based. As to conditions: EC50, median, SUDHL10, 3 h treatment. The gist of the method: (§2)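 DLBCL lines treated with compounds for 3 h at 37 °C in a humidified incubator; caspase-3/7 activity read with Caspase-Glo 3/7 luminescent reagent. Medium-only background subtracted from all values.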

Data set [6] deals with SUDHL5 cells. As to the kind of experiment: Induction of cytotoxicity (CellTiter-Glo, 5 h), SUDHL5. The settings on record: SUDHL5, 5 h.
Experimental: Therefore, cytotoxicity assays were run in parallel in SUDHL5 and SUDHL10 cells.
The different cell lines were plated in culture medium (RPMI 1640 [GIBCO #22400-089] supplemented with 10% Fetal Bovine Serum) at a density of 3,300 cells in 30 μL/well in a sterile, solid black, flat bottom, polystyrene, TC-treated 384-well microplate (Corning #3571) using Multidrop Combi Reagent Dispenser. As a control, medium without cells was also added to the plate. Cells were incubated in a humidified incubator at 37° C. overnight. […] Rim wells were excluded. The cells were incubated for 5 h hours in a humidified incubator at 37° C. After this incubation, 30 μL of CellTiter-Glo® Luminescent Cell Viability reagent (Promega, G7573) was added to each well using the Multidrop Combi Reagent Dispenser, followed by 15 min incubation on a shaker at room temperature. Finally, luminescence was read at 0.1 ms, with a gain of 3000 using the PHERAstar FS microplate reader (BMG Labtech).
Data set [7] relates to SUDHL5 cells. Description: Induction of caspase-3/7 activity (Caspase-Glo 3/7), SUDHL5. Format: cell-based. The settings on record: EC50, median, SUDHL5, 3 h treatment. The gist of the method: as §2
Where [8] appears, read: Homo sapiens, SU-DHL10, 5 h, read-out: Cytotox SUDHL10 [M] (median), IC50, median.
Where [9] appears, read: Homo sapiens, SU-DHL-5, 5 h, read-out: Cytotox SUDHL5 [M] (median), IC50, median.
Setting [10] is: read-out: Cytotox SUDHL10 [M] (median), IC50, median.
The mark [11] stands for this setting: read-out: Cytotox SUDHL5 [M] (median), IC50, median.

For the compound `CCc1c2c(nn1C)CCCN(C)CCn1c(C(=O)O)c(CCCOc3cccc4cc(F)ccc34)c3ccc(Cl)c-2c31` (racemic) [Example 115, (rac)-4-chloro-3-ethyl-7-{3-[(6-fluoronaphthalen-1-yl)oxy]propyl}-2,12-dimethyl-10,11,12,13,14,15-hexahydro-2H-pyrazolo[3′,4′:8,9][1,4]diazacycloundecino[10,11,1-hi]indole-8-carboxylic acid], the IC50 turned out to be 7.8e-07 M in data set [1] (Homo sapiens, SU-DHL-5, 72 h); 1.4e-06 M in data set [2] (setting [8]); 8e-06 M in data set [3] (72 h); 9.1e-07 M in data set [4] (Homo sapiens, AMO1, 72 h); 4.4e-07 M in data set [6] (setting [9]). The concentration giving a half-maximal response (EC50) worked out at 1400 nM in data set [5] (Homo sapiens, SU-DHL10, 3 h) and 160 nM in data set [7] (Homo sapiens, SU-DHL-5, 3 h).
Take `CCc1c2c(nn1C)COCCC(F)(F)Cn1c(C(=O)O)c(CCCOc3cccc4cc(F)ccc34)c3ccc(Cl)c-2c31` (single isomer, unassigned) [Example 97, (−)-4-chloro-3-ethyl-11,11-difluoro-7-{3-[(6-fluoronaphthalen-1-yl)oxy]propyl}-2-methyl-2,10,11,12,13,15-hexahydropyrazolo[4′,3′:9,10][1,6]oxazacycloundecino[8,7,6-hi]indole-8-carboxylic acid]: the IC50 was 5.5e-07 M in data set [1] (listed as 097); 4.2e-07 M in data set [2] (read-out: Cytotox SUDHL10 [M] (median), IC50, median, listed as 097); 2.2e-06 M in data set [3] (listed as 097); 2.2e-07 M in data set [4] (listed as 097); 4.4e-07 M in data set [6] (read-out: Cytotox SUDHL5 [M] (median), IC50, median, listed as 097). The half-maximal effective concentration (EC50) in data set [5] (listed as 097) amounted to 450 nM; in data set [7] (listed as 097), 320 nM.
As for `CCc1c2c(nn1C)CCCN(C)CCn1c(C(=O)O)c(CCCOc3cccc4cc(F)ccc34)c3ccc(Cl)c-2c31` (single isomer, unassigned) [Example 116, (+)-4-chloro-3-ethyl-7-{3-[(6-fluoronaphthalen-1-yl)oxy]propyl}-2,12-dimethyl-10,11,12,13,14,15-hexahydro-2H-pyrazolo[3′,4′:8,9][1,4]diazacycloundecino[10,11,1-hi]indole-8-carboxylic acid], the IC50 in data set [1] was 3.4e-07 M; in data set [2] (setting [10]) it was 3.4e-07 M; in data set [3] (72 h), 2.3e-06 M; in data set [4], 2.1e-07 M; in data set [6] (setting [11]) it was 4.1e-07 M. Further, the EC50 in data set [5] and in data set [7] was 290 nM in each case.
Take `Cc1c2c(nn1CCCN1CCN(C)CC1)COCCCCn1c(C(=O)O)c(CCCOc3cccc4ccccc34)c3ccc(Cl)c-2c31` (racemic) [Example 48, (rac)-4-chloro-3-methyl-2-[3-(4-methylpiperazin-1-yl)propyl]-7-{3-[(naphthalen-1-yl)oxy]propyl}-2,10,11,12,13,15-hexahydropyrazolo[4′,3′:9,10][1,6]oxazacycloundecino[8,7,6-hi]indole-8-carboxylic acid]: the IC50 amounted to 2e-07 M in data set [1] (Homo sapiens, SU-DHL-5, 72 h); 3e-07 M in data set [2] (setting [8]); 8.2e-07 M in data set [3] (72 h); 1.8e-07 M in data set [4] (Homo sapiens, AMO1, 72 h); 1.8e-07 M in data set [6] (setting [9]). In addition, the concentration giving a half-maximal response (EC50) in data set [5] (Homo sapiens, SU-DHL10, 3 h) came out at 400 nM; in data set [7] (Homo sapiens, SU-DHL-5, 3 h) it was 160 nM.
For the compound `Cc1c2c(nn1C)COCC(F)(F)CCn1c(C(=O)O)c(CCCOc3cccc4ccccc34)c3ccc(Cl)c-2c31` (racemic) [Example 55, (rac)-4-chloro-12,12-difluoro-2,3-dimethyl-7-{3-[(naphthalen-1-yl)oxy]propyl}-2,10,11,12,13,15-hexahydropyrazolo[4′,3′:9,10][1,6]oxazacycloundecino[8,7,6-hi]indole-8-carboxylic acid], the IC50 in data set [1] was found to be 4.3e-07 M; in data set [2] (setting [10]), 7.4e-07 M; in data set [3] (72 h), 2.2e-06 M; in data set [4], 1.4e-06 M; in data set [6] (setting [11]), 6.7e-07 M. Moreover, the concentration giving a half-maximal response (EC50) worked out at 520 nM in data set [5] and 600 nM in data set [7].
Consider `Cc1c2c(nn1C)CN(CC(F)(F)F)CCCCn1c(C(=O)O)c(CCCOc3cccc4cc(F)ccc34)c3ccc(Cl)c-2c31` (racemic) [Example 58, (rac)-4-chloro-7-{3-[(6-fluoronaphthalen-1-yl)oxy]propyl}-2,3-dimethyl-14-(2,2,2-trifluoroethyl)-10,11,12,13,14,15-hexahydro-2H-pyrazolo[3′,4′:8,9][1,6]diazacycloundecino[10,11,1-hi]indole-8-carboxylic acid], for which the IC50 in data set [1] (Homo sapiens, SU-DHL-5, 72 h) worked out at 6.2e-07 M; in data set [2] (setting [8]) it was 2e-06 M; in data set [3] (72 h) it was 5.8e-06 M; in data set [4] (Homo sapiens, AMO1, 72 h), 1.7e-06 M; in data set [6] (setting [9]), 8.4e-07 M. Also, the EC50 in data set [5] (Homo sapiens, SU-DHL10, 3 h) was 1500 nM; in data set [7] (Homo sapiens, SU-DHL-5, 3 h), 510 nM.
Take `CCc1c2c(nn1C)CN(C)CCC(F)(F)Cn1c(C(=O)O)c(CCCOc3cccc4cc(F)ccc34)c3ccc(Cl)c-2c31` (racemic) [Example 129, (rac)-4-chloro-3-ethyl-11,11-difluoro-7-{3-[(6-fluoronaphthalen-1-yl)oxy]propyl}-2,14-dimethyl-10,11,12,13,14,15-hexahydro-2H-pyrazolo[3′,4′:8,9][1,6]diazacycloundecino[10,11,1-hi]indole-8-carboxylic acid]: the IC50 in data set [1] (Homo sapiens, SU-DHL-5, 72 h) is 4.5e-07 M; in data set [2] (setting [8]) it was 8.9e-07 M; in data set [3] (72 h), 5.2e-06 M; in data set [4] (Homo sapiens, AMO1, 72 h) it was 8.3e-07 M; in data set [6] (setting [9]) it was 3.3e-07 M. Also, the EC50 in data set [5] (Homo sapiens, SU-DHL10, 3 h) came out at 740 nM; in data set [7] (Homo sapiens, SU-DHL-5, 3 h), 300 nM.
For the compound `CCc1c2c(nn1C)CCCCCCn1c(C(=O)O)c(CCCOc3cccc4ccccc34)c3ccc(Cl)c-2c31` (single isomer, unassigned; enantiomer 2) [Example 53, (−) 4-chloro-3-ethyl-2-methyl-7-{3-[(naphthalen-1-yl)oxy]propyl}-10,11,12,13,14,15-hexahydro-2H-pyrazolo[4′,3′:4,5]azacycloundecino[3,2,1-hi]indole-8-carboxylic acid-N-ethylethanamine salt—Enantiomer 2], the IC50 is 7.4e-07 M in data set [1]; 9.7e-07 M in data set [2] (setting [10]); 6.9e-06 M in data set [3] (72 h); 1.5e-06 M in data set [4]; 4.8e-07 M in data set [6] (setting [11]). In addition, the concentration for a half-maximal effect (EC50) in data set [5] was found to be 700 nM; in data set [7] it was 660 nM.
As to `CCc1c2c(nn1C)CN(C(=O)OCCC1CCOCC1)CCCCn1c(C(=O)O)c(CCCOc3cccc4cc(F)ccc34)c3ccc(Cl)c-2c31` [Example 138, (rac)-4-chloro-3-ethyl-7-{3-[(6-fluoronaphthalen-1-yl)oxy]propyl}-2-methyl-14-{[2-(oxan-4-yl)ethoxy]carbonyl}-10,11,12,13,14,15-hexahydro-2H-pyrazolo[3′,4′:8,9][1,6]diazacycloundecino[10,11,1-hi]indole-8-carboxylic acid], the IC50 amounted to 3.5e-07 M in data set [1] (Homo sapiens, SU-DHL-5, 72 h); 6e-07 M in data set [2] (setting [8]); 3e-06 M in data set [3] (72 h); 4.7e-07 M in data set [4] (Homo sapiens, AMO1, 72 h); 2.4e-07 M in data set [6] (setting [9]). In addition, the EC50 stood at 380 nM in data set [5] (Homo sapiens, SU-DHL10, 3 h) and 280 nM in data set [7] (Homo sapiens, SU-DHL-5, 3 h).

By EC50 is commonly meant the concentration giving half of the maximal effect. Read a low EC50 as higher potency in that assay.
